Data from article PMC3116189, “Novel Natural Inhibitors of CYP1A2 Identified by in Silico and in Vitro Screening” (International Journal of Molecular Sciences, 2011).

Each compound was assayed against T1, CYP1A2 (Homo sapiens, UniProt P05177) (assay: in vitro). Conditions: 1 μM active ingredient, Rh CYP1A2-mediated phenacetin O-deethylation, test dataset of 202 herb ingredients.
T1 sequence (P05177 1-516): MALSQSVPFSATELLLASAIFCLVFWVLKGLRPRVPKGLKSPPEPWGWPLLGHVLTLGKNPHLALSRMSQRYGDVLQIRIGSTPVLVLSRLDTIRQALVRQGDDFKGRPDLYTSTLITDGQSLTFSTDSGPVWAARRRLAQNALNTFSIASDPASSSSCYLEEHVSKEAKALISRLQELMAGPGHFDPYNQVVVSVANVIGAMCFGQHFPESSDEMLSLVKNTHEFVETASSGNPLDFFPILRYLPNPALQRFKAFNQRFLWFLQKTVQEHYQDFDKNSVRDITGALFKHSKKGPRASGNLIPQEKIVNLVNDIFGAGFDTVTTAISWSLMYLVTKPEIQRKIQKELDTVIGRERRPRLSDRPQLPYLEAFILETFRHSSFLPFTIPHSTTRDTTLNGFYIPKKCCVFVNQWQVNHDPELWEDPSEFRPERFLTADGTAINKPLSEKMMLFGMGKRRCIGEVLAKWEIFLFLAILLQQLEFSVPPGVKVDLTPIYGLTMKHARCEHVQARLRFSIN
Type: biochemical
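Also: recombinant CYP1A2 incubated for 1 h at 37 °C, with the reaction started by an NADPH-generating system.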

Structure (SMILES) | % of Control Indication Activity (Mean)
COc1ccc(-c2oc3c(CC=C(C)C)c(O[C@@H]4O[C@H](CO)[C@@H](O)[C@H](O)[C@H]4O)cc(O)c3c(=O)c2O)cc1 [Icariside I] | > 90%
COc1cc2c(cc1O)CC[n+]1cc3c(OC)c(OC)ccc3cc1-2.[Cl-] [Jatrorrhizine Hydrochloride] | > 90%
COc1cc2c(cc1OC)[C@@H](Cc1ccc(O)c(Oc3cc4c(cc3OC)CCN(C)[C@@H]4Cc3ccc(O)cc3)c1)N(C)CC2 [Liensinine] | > 90%
COc1ccc(-c2cc(=O)c3c(O)cc(O[C@@H]4O[C@H](CO[C@@H]5O[C@@H](C)[C@H](O)[C@@H](O)[C@H]5O)[C@@H](O)[C@H](O)[C@H]4O)cc3o2)cc1 [Linarin] | > 90%
COC[C@]12CN(C)[C@@H]3[C@@H]4[C@H](OC)[C@H]1[C@@]3([C@@H](OC)C[C@H]2O)[C@@H]1C[C@@]2(O)[C@H](OC(=O)c3ccccc3)[C@@H]1[C@]4(OC(C)=O)[C@@H](O)[C@@H]2OC [Mesaconitine] | > 90%
C[C@@H]1CCCCCCCCCCCCC(=O)C1 [Muscone] | > 90%
CC(C)=CCC[C@](C)(O[C@@H]1O[C@H](CO)[C@@H](O)[C@H](O)[C@H]1O)[C@H]1CC[C@]2(C)[C@@H]1[C@H](O)C[C@@H]1[C@@]3(C)CC[C@H](O)C(C)(C)[C@@H]3[C@@H](O[C@@H]3O[C@H](CO)[C@@H](O)[C@H](O)[C@H]3O[C@@H]3OC[C@@H](O)[C@H](O)[C@H]3O)C[C@]12C [Notoginsenoside R1] | > 90%
C[C@H]1CC[C@@]2(O)C(C)(C)[C@@H]3CC[C@@]2(C)[C@H]1C3 [Patchouli alcohol] | > 90%

Same assay, conditions: human, recombinant enzyme, pH 7.4

Structure (SMILES) | activity at 1 h, 1 μM
C=CCc1ccc(O)c(-c2ccc(O)c(CC=C)c2)c1 [Honokiol] | 33.6%
O=c1c(O[C@@H]2O[C@H](CO)[C@H](O)[C@H](O)[C@H]2O)c(-c2ccc(O)c(O)c2)oc2cc(O)cc(O)c12 [Hyperoside] | > 90%
COc1ccc(-c2oc3c(CC=C(C)C)c(O)cc(O)c3c(=O)c2O)cc1 [Icaritin] | > 90%
O=C1C[C@@H](c2ccc(O[C@@H]3O[C@H](CO)[C@@H](O)[C@H](O)[C@H]3O)cc2)Oc2cc(O)ccc21 [Liquiritin] | > 90%
COC(=O)c1c2c(c3ccccc3c1O)OC(C)(C)C=C2 [Mollugin] | > 90%
C[C@@H]1O[C@@H](O[C@H]2[C@H](Oc3cc(O)c4c(c3)O[C@H](c3ccc(O)cc3)CC4=O)O[C@H](CO)[C@@H](O)[C@@H]2O)[C@H](O)[C@H](O)[C@H]1O [Naringin] | > 90%
COc1ccc2ccc(=O)oc2c1CC=C(C)C [Osthole] | 86.8%
COc1cc(C(=O)O[C@H]2[C@@H]3C=CO[C@@H](O[C@@H]4O[C@H](CO)[C@@H](O)[C@H](O)[C@H]4O)[C@@H]3[C@@]3(CO)O[C@@H]23)ccc1O [Picroside-II] | > 90%

Same assay, conditions: human, recombinant enzyme, pH 7.4; 1 μM active ingredient, Rh CYP1A2-mediated phenacetin O-deethylation, test dataset of 202 herb ingredients; read-out: % of Control Indication Activity (Mean)

Structure (SMILES) | activity at 1 h, 1 μM
COc1cc2c[n+](C)c3c4cc5c(cc4ccc3c2cc1OC)OCO5 [Nitidine] | > 90%

Same assay, conditions: human, recombinant human CYP1A2, pH 7.4, probe phenacetin (25 μM), O-deethylation to acetaminophen; 1 μM active ingredient, Rh CYP1A2-mediated phenacetin O-deethylation, test dataset of 202 herb ingredients; read-out: % of Control Indication Activity (Mean)

Structure (SMILES) | activity at 1 h, 1 μM
CC(C)=CCC[C@](C)(O[C@@H]1O[C@H](CO[C@@H]2O[C@H](CO)[C@@H](O)[C@H](O)[C@H]2O)[C@@H](O)[C@H](O)[C@H]1O)[C@H]1CC[C@]2(C)[C@@H]1[C@H](O)C[C@@H]1[C@@]3(C)CC[C@H](O[C@@H]4O[C@H](CO)[C@@H](O)[C@H](O)[C@H]4O[C@@H]4O[C@H](CO)[C@@H](O)[C@H](O)[C@H]4O)C(C)(C)[C@@H]3CC[C@]12C [Ginsenoside Rb1] | > 90%
CC(C)=CCC[C@](C)(O[C@@H]1O[C@H](CO)[C@@H](O)[C@H](O)[C@H]1O)[C@H]1CC[C@]2(C)[C@@H]1[C@H](O)C[C@@H]1[C@@]3(C)CC[C@H](O)C(C)(C)[C@@H]3[C@@H](O[C@@H]3O[C@H](CO)[C@@H](O)[C@H](O)[C@H]3O[C@@H]3O[C@@H](C)[C@H](O)[C@@H](O)[C@H]3O)C[C@]12C [Ginsenoside Re] | > 90%
CC(C)=CCC[C@](C)(O[C@@H]1O[C@H](CO)[C@@H](O)[C@H](O)[C@H]1O)[C@H]1CC[C@]2(C)[C@@H]1[C@H](O)C[C@@H]1[C@@]3(C)CC[C@H](O)C(C)(C)[C@@H]3[C@@H](O[C@@H]3O[C@H](CO)[C@@H](O)[C@H](O)[C@H]3O)C[C@]12C [Ginsenoside Rg1] | > 90%
CC1(C)[C@@H](O)CC[C@]2(C)[C@H]3C(=O)C=C4[C@@H]5C[C@@](C)(C(=O)O)CC[C@]5(C)CC[C@@]4(C)[C@]3(C)CC[C@@H]12 [Glycyrrhetinic acid] | > 90%
C[C@]1(OC(=O)/C=C/c2ccccc2)C[C@@H](O)[C@]2(O)C=CO[C@@H](O[C@@H]3O[C@H](CO)[C@@H](O)[C@H](O)[C@H]3O)[C@@H]21 [Harpagoside] | > 90%
CC1(C)CC[C@]2(C(=O)O)CC[C@]3(C)C(=CC[C@@H]4[C@@]5(C)CC[C@H](O)[C@@](C)(CO)[C@@H]5CC[C@]43C)[C@@H]2C1 [Hederagenin] | > 90%
O=C1/C(=C2\Nc3ccccc3C2=O)Nc2ccccc21 [Indigo] | > 90%
O=C1Nc2ccccc2/C1=C1/Nc2ccccc2C1=O [Indirubin] | > 90%
COc1cc(-c2coc3cc4c(c(OC)c3c2=O)OCO4)cc(OC)c1OC [Irisflorentin] | > 90%
COc1ccc(/C=C/C(=O)O)cc1O [Isoferulic acid] | > 90%
C[C@@]1(CO)C[C@@H](O)C[C@@]2(C)[C@@H]3CC[C@](C)([C@@H](O)CO)C=C3CC[C@H]12 [Kirenol] | > 90%
C/C1=C\CC[C@]23O[C@H]2[C@@H](OC3=O)c2c(C)coc2C1 [Linderane] | > 90%
COC(=O)C1=CO[C@@H](O[C@@H]2O[C@H](CO)[C@@H](O)[C@H](O)[C@H]2O)[C@@H]2[C@@H](C)[C@@H](O)C[C@H]12 [Loganin] | > 90%
O=c1cc(-c2ccc(O)c(O)c2)oc2cc(O)cc(O)c12 [Luteolin] | 87.4%
CC1CCC(C(C)C)C(O)C1 (stereo not drawn) [Menthol] | > 90%
C=C1C(=O)[C@]23[C@H](O)[C@H]1CC[C@H]2[C@@]12CO[C@]3(O)[C@@H](O)[C@@H]1C(C)(C)CC[C@@H]2O [Oridonin] | > 90%
C[C@@]12C[C@@]3(O)O[C@@H](O1)[C@]1(COC(=O)c4ccccc4)[C@H]3C[C@@]12O[C@@H]1O[C@H](CO)[C@@H](O)[C@H](O)[C@H]1O [Paeoniflorin] | > 90%
COc1ccc(-c2cc(=O)c3c(O)c(OC)c(O[C@@H]4O[C@H](CO[C@@H]5O[C@@H](C)[C@H](O)[C@@H](O)[C@H]5O)[C@@H](O)[C@H](O)[C@H]4O)cc3o2)cc1 [Pectolinarin] | > 90%
COc1cc(O)c2c(c1)C(=O)c1cc(C)cc(O)c1C2=O [Physcion] | > 90%

Same assay, conditions: recombinant enzyme

Structure (SMILES) | % of Control Indication Activity (Mean)
COc1ccc([C@@H]2CC(=O)c3c(O)cc(O[C@@H]4O[C@H](CO[C@@H]5O[C@@H](C)[C@H](O)[C@@H](O)[C@H]5O)[C@@H](O)[C@H](O)[C@H]4O)cc3O2)cc1O [Hesperidin] | > 90
COc1cc2ccc(=O)oc2c(OC)c1O [Isofraxidin] | > 90
CC1(C)CC[C@]2(C(=O)O)CC[C@]3(C)C(=CC[C@@H]4[C@@]5(C)CC[C@H](O[C@@H]6O[C@H](C(=O)O)[C@@H](O)[C@H](O[C@@H]7OC[C@@H](O)[C@H](O)[C@H]7O)[C@H]6O)C(C)(C)[C@@H]5CC[C@]43C)[C@@H]2C1 [Momordin Ic] | > 90
COc1cc2c(cc1OC)-c1cc3ccc(OC)c(OC)c3c[n+]1CC2.[Cl-] [Palmatine Hydrochloride] | > 90

Same assay, conditions: recombinant enzyme, pH 7.4; 1 μM active ingredient, Rh CYP1A2-mediated phenacetin O-deethylation, test dataset of 202 herb ingredients; read-out: % of Control Indication Activity (Mean)

Structure (SMILES) | activity | activity at 1 h, 1 μM
COC[C@@]12CC[C@H](OC)[C@]34C(C([C@H](OC)[C@H]13)[C@]1(OC(C)=O)[C@H]3[C@@H](OC(=O)c5ccccc5)[C@](O)(C[C@H]34)[C@@H](OC)[C@@H]1O)N(C)C2 [Hypaconitine] | > 90% | 
CC(C)=CCOc1c2occc2cc2ccc(=O)oc12 [Imperatorin] | > 90% | 
O=c1ccc2ccc3occc3c2o1 [Isopsoralen] |  | > 90%
COc1cc(-c2oc3cc(O)cc(O)c3c(=O)c2O)ccc1O [Isorhamnetin] | > 90% | 
CC1=C2C(=O)[C@H]3[C@@H](CC=C4C[C@@H](O)CC[C@@]43C)[C@@H]2CC[C@]12O[C@@H]1C[C@H](C)CN[C@H]1[C@H]2C [Jervine] |  | > 90%
C=CCc1ccc(O)c(-c2cc(CC=C)ccc2O)c1 [Magnolol] | > 90% | 
O=C1CCC[C@@H]2[C@H]3CCCN4CCC[C@@H](CN12)[C@@H]34 [Matrine] | > 90% | 
CCCCCCCCCC(C)=O [Methyl nonylketone] | > 90% | 
COc1cc2c3c(c1OC)-c1ccccc1C[C@H]3N(C)CC2 [Nuciferine] | 85.5% | 
CC1(C)CC[C@]2(C(=O)O)CC[C@]3(C)C(=CC[C@@H]4[C@@]5(C)CC[C@H](O)C(C)(C)[C@@H]5CC[C@]43C)[C@@H]2C1 [Oleanol ic acid] |  | > 90%
O=C(/C=C/C=C/c1ccc2c(c1)OCO2)N1CCCCC1 [Piperine] |  | > 90%
